# Reference: patent publication US7563592B2, “Alizarin-based chromogenic substrates, their uses and composition containing same” (Biomerieux, S.A., priority 1999, dated 2009)
# Legend:
# Format in all cases: cell-based
# eight (8) species tested = assay: β-glucosidase detection in API strip wells, all species together (Example 6); conditions: of the eight (8) species tested; 0.12 g/l + iron citrate 0.05 g/l
# Listeria innocua 036 = assay: Effect of metal salts on the color of the marker part, substrate 50 mg/l in Columbia medium (Example 3)
# Procedure: (§1) To the Columbia-base medium (46.37 g/l) supplemented with Alizarin-2-β-D-glucoside (50 mg/l), were added either Manganese chloride, Ammoniacal iron citrate, Tin chloride, or Aluminum sulfate, all at a concentration of 50 mg/l. A control medium with no metal salts was tested in parallel. After autoclaving, these various media were all used to prepare Petri dishes (20 ml per plate). […] It should be pointed out that intensity readings are in arbitrary units. The only purpose of giving these values is to make it possible to compare one strain with another in this respect. The same is true for the examples which follow. Similarly, the strains tested were taken from the Applicant's collection and the number given represents an internal reference specific to this collection. The same internal numbering system is also used in some of the examples given later on.
# Listeria seeligeri 011 = assay: as above
# Procedure: as §1
# Listeria ivanovii 018 = assay: as above
# Procedure: as §1
# [1] = tested on: Listeria monocytogenes 079; assay: as above
# Procedure: as §1
# [2] = tested on: Listeria monocytogenes 081; assay: as above
# Procedure: as §1
# Listeria innocua 077 = assay: as above
# Procedure: as §1
# Shigella flexneri = assay: β-galactosidase detection on semi-solid medium, clinical and environmental strains (Example 2); conditions: 50 mg/l + iron citrate 500 mg/l; 18 hours; 2 strains tested
# Klebsiella ozaenae = assay: as above; conditions: 50 mg/l + iron citrate 500 mg/l; 18 hours; 3 strains tested
# Vibrio cholerae = conditions: 50 mg/l + iron citrate 500 mg/l; 18 hours; 1 strain tested
# Citrobacter freundii = assay: β-galactosidase detection on semi-solid medium, clinical and environmental strains (Example 2); conditions: 50 mg/l + iron citrate 500 mg/l; 18 hours; 16 strains tested
# Enterobacter agglomerans = assay: as above; conditions: 50 mg/l + iron citrate 500 mg/l; 18 hours; 1 strain tested
# Proteus mirabilis = assay: as above; conditions: 50 mg/l + iron citrate 500 mg/l; 18 hours; 16 strains tested
# [3] = Manganese chloride 50 mg/l, 24 H
# [4] = Manganese chloride 50 mg/l, 48 H
structure (smiles),measurement,setting,value
O=C1c2ccccc2C(=O)c2c1ccc(O[C@@H]1O[C@H](CO)[C@@H](O)[C@H](O)[C@H]1O)c2O [Alizarin-2-β-D-glucoside],species in which activity was detected,eight (8) species tested,7 species
same,Color,"Listeria innocua 036; Aluminum sulfate 50 mg/l, 24 H",red
same,Intensity,"Listeria innocua 036; Aluminum sulfate 50 mg/l, 24 H",4 arbitrary units
same,Color,"Listeria innocua 036; Aluminum sulfate 50 mg/l, 48 H",red
same,Intensity,"Listeria innocua 036; Aluminum sulfate 50 mg/l, 48 H",4 arbitrary units
same,Color,"Listeria innocua 036; Control, no metal salt, 24 H",purple
same,Intensity,"Listeria innocua 036; Control, no metal salt, 24 H",2.3 arbitrary units
same,Color,"Listeria innocua 036; Control, no metal salt, 48 H",purple
same,Intensity,"Listeria innocua 036; Control, no metal salt, 48 H",2.7 arbitrary units
same,Color,"Listeria innocua 036; Iron citrate 50 mg/l, 24 H",purple
same,Intensity,"Listeria innocua 036; Iron citrate 50 mg/l, 24 H",4 arbitrary units
same,Color,"Listeria innocua 036; Iron citrate 50 mg/l, 48 H",purple
same,Intensity,"Listeria innocua 036; Iron citrate 50 mg/l, 48 H",4 arbitrary units
same,Color,Listeria innocua 036; [3],purple
same,Intensity,Listeria innocua 036; [3],2.3 arbitrary units
same,Color,Listeria innocua 036; [4],purple
same,Intensity,Listeria innocua 036; [4],2.7 arbitrary units
same,Color,"Listeria innocua 036; Tin chloride 50 mg/l, 24 H",orange
same,Intensity,"Listeria innocua 036; Tin chloride 50 mg/l, 24 H",3 arbitrary units
same,Color,"Listeria innocua 036; Tin chloride 50 mg/l, 48 H",orange
same,Intensity,"Listeria innocua 036; Tin chloride 50 mg/l, 48 H",4 arbitrary units
same,Color,"Listeria seeligeri 011; Aluminum sulfate 50 mg/l, 24 H",red
same,Intensity,"Listeria seeligeri 011; Aluminum sulfate 50 mg/l, 24 H",4 arbitrary units
same,Color,"Listeria seeligeri 011; Aluminum sulfate 50 mg/l, 48 H",red
same,Intensity,"Listeria seeligeri 011; Aluminum sulfate 50 mg/l, 48 H",4 arbitrary units
same,Color,"Listeria seeligeri 011; Control, no metal salt, 24 H",purple
same,Intensity,"Listeria seeligeri 011; Control, no metal salt, 24 H",2.3 arbitrary units
same,Color,"Listeria seeligeri 011; Control, no metal salt, 48 H",purple
same,Intensity,"Listeria seeligeri 011; Control, no metal salt, 48 H",2.3 arbitrary units
same,Color,"Listeria seeligeri 011; Iron citrate 50 mg/l, 24 H",purple
same,Intensity,"Listeria seeligeri 011; Iron citrate 50 mg/l, 24 H",4 arbitrary units
same,Color,"Listeria seeligeri 011; Iron citrate 50 mg/l, 48 H",purple
same,Intensity,"Listeria seeligeri 011; Iron citrate 50 mg/l, 48 H",4 arbitrary units
same,Color,Listeria seeligeri 011; [3],purple
same,Intensity,Listeria seeligeri 011; [3],2.7 arbitrary units
same,Color,Listeria seeligeri 011; [4],purple
same,Intensity,Listeria seeligeri 011; [4],2.7 arbitrary units
same,Color,"Listeria seeligeri 011; Tin chloride 50 mg/l, 24 H",orange
same,Intensity,"Listeria seeligeri 011; Tin chloride 50 mg/l, 24 H",3 arbitrary units
same,Color,"Listeria seeligeri 011; Tin chloride 50 mg/l, 48 H",orange
same,Intensity,"Listeria seeligeri 011; Tin chloride 50 mg/l, 48 H",4 arbitrary units
same,Color,"Listeria ivanovii 018; Aluminum sulfate 50 mg/l, 24 H",red
same,Intensity,"Listeria ivanovii 018; Aluminum sulfate 50 mg/l, 24 H",4 arbitrary units
same,Color,"Listeria ivanovii 018; Aluminum sulfate 50 mg/l, 48 H",red
same,Intensity,"Listeria ivanovii 018; Aluminum sulfate 50 mg/l, 48 H",4 arbitrary units
same,Color,"Listeria ivanovii 018; Control, no metal salt, 24 H",purple
same,Intensity,"Listeria ivanovii 018; Control, no metal salt, 24 H",2.3 arbitrary units
same,Color,"Listeria ivanovii 018; Control, no metal salt, 48 H",purple
same,Intensity,"Listeria ivanovii 018; Control, no metal salt, 48 H",2.3 arbitrary units
same,Color,"Listeria ivanovii 018; Iron citrate 50 mg/l, 24 H",purple
same,Intensity,"Listeria ivanovii 018; Iron citrate 50 mg/l, 24 H",4 arbitrary units
same,Color,"Listeria ivanovii 018; Iron citrate 50 mg/l, 48 H",purple
same,Intensity,"Listeria ivanovii 018; Iron citrate 50 mg/l, 48 H",4 arbitrary units
same,Color,Listeria ivanovii 018; [3],purple
same,Intensity,Listeria ivanovii 018; [3],2.7 arbitrary units
same,Color,Listeria ivanovii 018; [4],purple
same,Intensity,Listeria ivanovii 018; [4],2.7 arbitrary units
same,Color,"Listeria ivanovii 018; Tin chloride 50 mg/l, 24 H",orange
same,Intensity,"Listeria ivanovii 018; Tin chloride 50 mg/l, 24 H",3 arbitrary units
same,Color,"Listeria ivanovii 018; Tin chloride 50 mg/l, 48 H",orange
same,Intensity,"Listeria ivanovii 018; Tin chloride 50 mg/l, 48 H",4 arbitrary units
same,Color,"[1]; Aluminum sulfate 50 mg/l, 24 H",red
same,Intensity,"[1]; Aluminum sulfate 50 mg/l, 24 H",4 arbitrary units
same,Color,"[1]; Aluminum sulfate 50 mg/l, 48 H",red
same,Intensity,"[1]; Aluminum sulfate 50 mg/l, 48 H",4 arbitrary units
same,Color,"[1]; Control, no metal salt, 24 H",purple
same,Intensity,"[1]; Control, no metal salt, 24 H",2.3 arbitrary units
same,Color,"[1]; Control, no metal salt, 48 H",purple
same,Intensity,"[1]; Control, no metal salt, 48 H",2.3 arbitrary units
same,Color,"[1]; Iron citrate 50 mg/l, 24 H",purple
same,Intensity,"[1]; Iron citrate 50 mg/l, 24 H",4 arbitrary units
same,Color,"[1]; Iron citrate 50 mg/l, 48 H",purple
same,Intensity,"[1]; Iron citrate 50 mg/l, 48 H",4 arbitrary units
same,Color,[1]; [3],purple
same,Intensity,[1]; [3],2.7 arbitrary units
same,Color,[1]; [4],purple
same,Intensity,[1]; [4],2.7 arbitrary units
same,Color,"[1]; Tin chloride 50 mg/l, 24 H",orange
same,Intensity,"[1]; Tin chloride 50 mg/l, 24 H",3.5 arbitrary units
same,Color,"[1]; Tin chloride 50 mg/l, 48 H",orange
same,Intensity,"[1]; Tin chloride 50 mg/l, 48 H",4 arbitrary units
same,Color,"[2]; Aluminum sulfate 50 mg/l, 24 H",red
same,Intensity,"[2]; Aluminum sulfate 50 mg/l, 24 H",4 arbitrary units
same,Color,"[2]; Aluminum sulfate 50 mg/l, 48 H",red
same,Intensity,"[2]; Aluminum sulfate 50 mg/l, 48 H",4 arbitrary units
same,Color,"[2]; Control, no metal salt, 24 H",purple
same,Intensity,"[2]; Control, no metal salt, 24 H",2.3 arbitrary units
same,Color,"[2]; Control, no metal salt, 48 H",purple
same,Intensity,"[2]; Control, no metal salt, 48 H",2.3 arbitrary units
same,Color,"[2]; Iron citrate 50 mg/l, 24 H",purple
same,Intensity,"[2]; Iron citrate 50 mg/l, 24 H",4 arbitrary units
same,Color,"[2]; Iron citrate 50 mg/l, 48 H",purple
same,Intensity,"[2]; Iron citrate 50 mg/l, 48 H",4 arbitrary units
same,Color,[2]; [3],purple
same,Intensity,[2]; [3],2.3 arbitrary units
same,Color,[2]; [4],purple
same,Intensity,[2]; [4],2.7 arbitrary units
same,Color,"[2]; Tin chloride 50 mg/l, 24 H",orange
same,Intensity,"[2]; Tin chloride 50 mg/l, 24 H",3 arbitrary units
same,Color,"[2]; Tin chloride 50 mg/l, 48 H",orange
same,Intensity,"[2]; Tin chloride 50 mg/l, 48 H",4 arbitrary units
same,Color,"Listeria innocua 077; Aluminum sulfate 50 mg/l, 24 H",red
same,Intensity,"Listeria innocua 077; Aluminum sulfate 50 mg/l, 24 H",4 arbitrary units
same,Color,"Listeria innocua 077; Aluminum sulfate 50 mg/l, 48 H",red
same,Intensity,"Listeria innocua 077; Aluminum sulfate 50 mg/l, 48 H",4 arbitrary units
same,Color,"Listeria innocua 077; Control, no metal salt, 24 H",purple
same,Intensity,"Listeria innocua 077; Control, no metal salt, 24 H",2.3 arbitrary units
same,Color,"Listeria innocua 077; Control, no metal salt, 48 H",purple
same,Intensity,"Listeria innocua 077; Control, no metal salt, 48 H",2.3 arbitrary units
same,Color,"Listeria innocua 077; Iron citrate 50 mg/l, 24 H",purple
same,Intensity,"Listeria innocua 077; Iron citrate 50 mg/l, 24 H",4 arbitrary units
same,Color,"Listeria innocua 077; Iron citrate 50 mg/l, 48 H",purple
same,Intensity,"Listeria innocua 077; Iron citrate 50 mg/l, 48 H",4 arbitrary units
same,Color,Listeria innocua 077; [3],purple
same,Intensity,Listeria innocua 077; [3],2.3 arbitrary units
same,Color,Listeria innocua 077; [4],purple
same,Intensity,Listeria innocua 077; [4],2.3 arbitrary units
same,Color,"Listeria innocua 077; Tin chloride 50 mg/l, 24 H",orange
same,Intensity,"Listeria innocua 077; Tin chloride 50 mg/l, 24 H",3 arbitrary units
same,Color,"Listeria innocua 077; Tin chloride 50 mg/l, 48 H",orange
same,Intensity,"Listeria innocua 077; Tin chloride 50 mg/l, 48 H",4 arbitrary units
O=C1c2ccccc2C(=O)c2c1ccc(O[C@@H]1O[C@H](CO)[C@H](O)[C@H](O)[C@H]1O)c2O [Alizarin-2-β-D-galactoside],percentage of positive strains,Shigella flexneri,0%
same,percentage of positive strains,Klebsiella ozaenae,100%
same,percentage of positive strains,Vibrio cholerae,100%
same,percentage of positive strains,Citrobacter freundii,100%
same,percentage of positive strains,Enterobacter agglomerans,100%
same,percentage of positive strains,Proteus mirabilis,0%
